In patent publication US12685743B2, “Methods and compositions for treating and diagnosing pancreatic cancers” (New York University, priority 2019, dated 2026):

Tests used:
[1] = tested on: orthotopic PDA tumors from KPC mice; conditions: for progression of orthotopic PDA (tumor weight): wild-type mice, oral antifungal vs vehicle, killed three weeks after tumor implantation (FIG. 3B, 7A)
[2] = tested on: oncogenic progression in KC mice (p48cre;LSL-KrasG12D); experiment: KC mouse model of slowly progressive PDA, mycobiome ablation; format: in vivo; conditions: oral amphotericin B vs vehicle, killed at three months old (FIG. 3A)
Text: (§1) Littermates were used as controls.

[3] = tested on: orthotopic tumors from KPC mice; experiment: Orthotopic KPC tumors in MBL-null mice; format: in vivo, mouse; conditions: amphotericin B vs vehicle, three weeks (FIG. 8B)
Text: as §1

[4] = tested on: orthotopic tumors from KPC mice; experiment: Intratumoral injection of recombinant C3a into orthotopic KPC tumors; format: in vivo, mouse; conditions: single intratumoral injection 40 μg/kg on day 14, tumors collected day 21 (FIG. 4D)
Text: as §1

[5] = tested on: KPC tumor cells; experiment: XTT proliferation assay of KPC tumor cells; format: cell-based; conditions: recombinant mouse C3a 5 nM vs vehicle, serial time points (FIG. 8F)
Text: as §1

| Molecule | effect on gemcitabine chemotherapy (tumor weight) ([1]; wild-type mice with orthotopic PDA tumors, amphotericin B combined with gemcitabine, three weeks of treatment (FIG. 3C)) | progression of orthotopic PDA (tumor weight) [1] | oncogenic progression (pancreatic weight, acinar area, ADM/PanIN lesions, fibrosis) [2] | protection against tumor growth in MBL-null mice (tumor weight) [3] | growth of KPC tumors in vivo (change in tumor volume) [4] | proliferation of KPC cells in vitro [5] |
| --- | --- | --- | --- | --- | --- | --- |
| C[C@@H]1[C@H](O)[C@@H](C)/C=C/C=C/C=C/C=C/C=C/C=C/C=C/[C@H](O[C@@H]2O[C@H](C)[C@@H](O)[C@H](N)[C@@H]2O)C[C@@H]2O[C@](O)(C[C@@H](O)C[C@@H](O)[C@H](O)CC[C@@H](O)C[C@@H](O)CC(=O)O[C@H]1C)C[C@H](O)[C@H]2C(=O)O [amphotericin B] | potentiated the effect of chemotherapy based on gemcitabine | protective against progression | protected the mice against oncogenic progression | did not provide protection against tumor growth | – | – |
| OC(Cn1cncn1)(Cn1cncn1)c1ccc(F)cc1F [fluconazole] | – | protective against progression | – | – | – | – |
| recombinant C3a: recombinant mouse complement fragment C3a (R&D) | – | – | – | – | accelerated | accelerated the proliferation of KPC cells |
